Values of other authors in patent US20130261032A1, “ADDITIVE FOR SUBTERRANEAN TREATMENT” (SCHLUMBERGER TECHNOLOGY CORPORATION, priority 2012, published 2013).
Read-outs that look alike come from different tables or passages of the source.

In the case of `C[N+](C)(C)CC(=O)[O-]` [TMG, trimethyl glycine], the “acute oral toxicity, LD50” value (oral) is given as “greater than 10,000 mg/kg”.
For `CCO` [ethanol], the “acute oral toxicity, LD50” value (in vivo, po) is given as 7060 mg/kg.
For `CC(O)CO` (stereo not drawn) [propylene glycol], the “acute oral toxicity, LD50” value (oral) is given as 20,000 mg/kg.
